# Measured values as given in patent US20080275058A1, “N-Substituted-1H-Quinoline-2,4-Diones, Preparation Method Thereof, And Pharmaceutical Composition Containing The Same” (KOREA RESEARCH INSTITUTE OF CHEMICAL TECHNOLOGY, priority 2005, published 2008).
# Read-outs that look alike come from different tables or passages of the source.
# How the values were obtained:
# [1] = biological target: T1, Human serotonin 5-HT6 receptor (Homo sapiens, UniProt P50406); assay: [3H]LSD binding assay on cloned 5-HT6 receptor membranes
# T1 construct: made in house; host or cells: insect Sf21 cells (baculovirus vector BacPAK8)
# [2] = biological target: T2, 5-HT7 (Homo sapiens, UniProt P34969); assay: Radioligand binding, 5-HT7 ([3H]LSD); details: Table 4; [3H]LSD 3 nM; read-out: Binding affinity, IC50 (nM) 5-HT7
# T2 construct: purchased Euroscreen/BioSignal Packard Inc
# [3] = biological target: T3, 5-HT1a (Homo sapiens, UniProt P08908); assay: Radioligand binding, 5-HT1a ([3H]8-OH-DPAT); details: Table 4; [3H]8-OH-DPAT 0.5 nM; read-out: Binding affinity, IC50 (nM) 5-HT1a
# T3 construct: purchased Euroscreen/BioSignal Packard Inc
# T3 sequence (P08908 1-422): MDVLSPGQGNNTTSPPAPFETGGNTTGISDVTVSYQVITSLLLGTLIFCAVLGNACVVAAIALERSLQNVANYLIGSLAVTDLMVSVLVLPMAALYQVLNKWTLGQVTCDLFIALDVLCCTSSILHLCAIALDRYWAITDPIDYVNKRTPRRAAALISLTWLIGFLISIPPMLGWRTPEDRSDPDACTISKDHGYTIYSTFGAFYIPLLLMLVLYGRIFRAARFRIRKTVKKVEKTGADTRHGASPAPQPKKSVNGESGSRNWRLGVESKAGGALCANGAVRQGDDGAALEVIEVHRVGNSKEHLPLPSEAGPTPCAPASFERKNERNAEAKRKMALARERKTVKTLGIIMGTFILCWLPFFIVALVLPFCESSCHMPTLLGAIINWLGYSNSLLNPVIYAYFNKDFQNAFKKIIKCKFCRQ
# Procedure, shortened: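 Per manufacturer method: commercial membranes incubated with radioligand and test compound, bound label counted.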
# [4] = biological target: T4, 5-HT2a (Homo sapiens, UniProt P28223); assay: Radioligand binding, 5-HT2a ([3H]Ketanserin); details: Table 4; [3H]Ketanserin 1 nM; read-out: Binding affinity, IC50 (nM) 5-HT2a
# T4 construct: purchased Euroscreen/BioSignal Packard Inc
# [5] = biological target: T5, 5-HT2c (Homo sapiens, UniProt P28335); assay: Radioligand binding, 5-HT2c ([3H]Mesulergine); details: Table 4; [3H]Mesulergine 1 nM; read-out: Binding affinity, IC50 (nM) 5-HT2c
# T5 construct: purchased Euroscreen/BioSignal Packard Inc
# T5 sequence (P28335 33-458): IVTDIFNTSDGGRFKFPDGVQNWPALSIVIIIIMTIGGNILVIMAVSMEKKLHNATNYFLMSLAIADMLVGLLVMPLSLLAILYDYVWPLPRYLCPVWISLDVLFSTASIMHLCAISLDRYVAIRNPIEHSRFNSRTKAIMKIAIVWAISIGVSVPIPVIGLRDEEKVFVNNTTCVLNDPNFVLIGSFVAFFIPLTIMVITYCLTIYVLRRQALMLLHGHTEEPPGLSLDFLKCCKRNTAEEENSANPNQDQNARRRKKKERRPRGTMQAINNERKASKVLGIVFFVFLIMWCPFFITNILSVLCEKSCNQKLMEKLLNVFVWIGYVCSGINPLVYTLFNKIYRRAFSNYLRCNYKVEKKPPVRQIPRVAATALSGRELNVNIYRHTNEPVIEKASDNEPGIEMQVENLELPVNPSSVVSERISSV
# [6] = biological target: D1 (Homo sapiens, UniProt P21728); assay: Radioligand binding, dopamine D1; details: Table 4; read-out: Binding affinity, IC50 (nM) D1
# [7] = biological target: T6, hD2L (Homo sapiens, UniProt P14416); assay: Radioligand binding, dopamine D2 ([3H]spiperone); details: Table 4; [3H]spiperone 1 nM; read-out: Binding affinity, IC50 (nM) D2
# T6 construct: purchased BioSignal Packard Inc., Montreal, Canada
# Procedure, shortened: (§1)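 IC50 values come from nonlinear fits of three displacement experiments, each using 7-8 test concentrations in duplicate. D2L and D3 membranes were labelled with 1 nM [3H]spiperone, and D4.2 with 0.06 nM [3H]YM-09151-2. All assays used pH 7.4 Tris buffers, with the D3 buffer adding 120 mM NaCl, KCl and CaCl2.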
# [8] = biological target: T7, hD3 (Homo sapiens, UniProt P35462); assay: Radioligand binding, dopamine D3 ([3H]spiperone); details: Table 4; [3H]spiperone 1 nM; read-out: Binding affinity, IC50 (nM) D3
# T7 construct: purchased BioSignal Packard Inc., Montreal, Canada
# Procedure, shortened: as §1
# [9] = biological target: T8, hD4.2 receptor (Homo sapiens, UniProt P21917, DEL265-296); assay: Radioligand binding, dopamine D4 ([3H]YM-09151-2); details: Table 4; [3H]YM-09151-2 0.06 nM; read-out: Binding affinity, IC50 (nM) D4
# T8 construct: purchased BioSignal Packard Inc., Montreal, Canada
# T8 sequence (P21917 with tags, fused parts or gaps DEL265-296): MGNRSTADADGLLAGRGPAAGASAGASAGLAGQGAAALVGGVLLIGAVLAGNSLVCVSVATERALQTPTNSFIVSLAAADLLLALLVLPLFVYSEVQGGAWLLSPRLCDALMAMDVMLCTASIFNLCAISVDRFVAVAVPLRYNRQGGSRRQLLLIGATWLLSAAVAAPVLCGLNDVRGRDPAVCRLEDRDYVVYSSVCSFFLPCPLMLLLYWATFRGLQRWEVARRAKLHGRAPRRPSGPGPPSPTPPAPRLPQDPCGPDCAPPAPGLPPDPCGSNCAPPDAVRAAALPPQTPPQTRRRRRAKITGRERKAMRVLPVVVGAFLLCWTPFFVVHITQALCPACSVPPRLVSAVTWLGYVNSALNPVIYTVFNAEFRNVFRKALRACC
# Procedure, shortened: as §1
# [10] = Rotarod deficit in mice; assay type: in vivo, mouse; details: mouse, in vivo, po, unit printed as image, read-out: TD50 (median neurotoxic dose)
# Description: (§2) The mouse was placed on a 1 inch diameter knurled plastic rod rotating at 6 rpm (Ugo-Basile, Milano, Italy), and the rotarod deficit (%) was obtained by counting the number of animals fallen from the rotating rod within 1 min [Dunham et al., 1957] at 60, 90 and 120 min after the injection of the compound according to the invention(200, 300 or 400 ? ). […] The compounds of the examples were suspended in 3% Tween 80 solution, and were administered (p.o.) 60 min before the testing.
# [11] = test system: mice; assay: Rotarod deficit in mice; assay type: in vivo, mouse
# Description: as §2
# [12] = biological target: T9, 5-HT6 receptors (Homo sapiens, UniProt P50406); details: human 5-HT6 receptors, background literature; cited from earlier work
# [13] = test system: rat; details: cited from earlier work; for anticonvulsant activity: background literature
# [14] = test system: rats; details: cited from earlier work
# [15] = test system: rats; details: cited from earlier work; remark: listed apart in the source
# [16] = biological target: T9, 5-HT6 receptors; details: background literature, cited from earlier work; for affinity at 5-HT6 receptors, in words: antipsychotics
# [17] = test system: rats; details: water maze; cited from earlier work
# [18] = cited from earlier work
# [19] = test system: rats; assay: Methamphetamine-induced disruption of prepulse inhibition (PPI) in rats; assay type: in vivo, rat
# Description: To assay antipsychotic properties of the compounds according to the invention, prepulse inhibition (PPI) of acoustic startle in animals was performed. Startle response was measured using SR-LAB startle chamber (San Diego Instruments, San Diego, USA). The animal enclosure was housed in a ventilated and sound-attenuated startle chamber with 60 dB ambient noise level, and consisted of a Plexiglas cylinder 40 mm in diameter on a platform, connected to a piezoelectric accelerometer which detects and transducer motion within the cylinder. Acoustic noise bursts were presented through a loudspeaker mounted 24 ? above the animal. […] Each startle session began with a 5-min acclimatization period in the chamber to 68 dB background noises. The test session consisting of the following four different trial types was carried for all experiments: a 40 ms broadband 120 dB burst (P; pulse alone trial), P preceded 100 ms earlier by a 20 ms noise burst 10 dB above background (pP; prepulse+pulse trial), a 40 ms broadband 78 dB burst (prepulse alone trial), and a no stimulus trial (background). Eight trials of each type were presented in a pseudorandom order (total32 trials) with an average interval of 15 sec. separating each trial. An extra 5 pulse-alone trials were presented at the beginning and end of each test session, but were not used in the calculation of PPI values. PPI was defined as the percent reduction in startle amplitude in the presence of prepulse compared to the amplitude in the absence of the prepulse using the following Math Equation 1. […] Differences were considered significant at P<0.05. Statistical analyses were conducted using SigmaStat software (SigmaStat, Jandel Co., San Rafael, Calif.). The data were expressed as means±SEM.
# [20] = frontal cortex and dorsal hippocampus; cited from earlier work
# [21] = Table 2, 1.87 nM [3H]LSD, 37 C, 60 min, read-out: IC50 (nM), binding affinity to the 5-HT6 receptor
# [22] = Table 4, read-out: Binding affinity, IC50 (nM) 5-HT6
# Chain of D1 (P21728 whole entry): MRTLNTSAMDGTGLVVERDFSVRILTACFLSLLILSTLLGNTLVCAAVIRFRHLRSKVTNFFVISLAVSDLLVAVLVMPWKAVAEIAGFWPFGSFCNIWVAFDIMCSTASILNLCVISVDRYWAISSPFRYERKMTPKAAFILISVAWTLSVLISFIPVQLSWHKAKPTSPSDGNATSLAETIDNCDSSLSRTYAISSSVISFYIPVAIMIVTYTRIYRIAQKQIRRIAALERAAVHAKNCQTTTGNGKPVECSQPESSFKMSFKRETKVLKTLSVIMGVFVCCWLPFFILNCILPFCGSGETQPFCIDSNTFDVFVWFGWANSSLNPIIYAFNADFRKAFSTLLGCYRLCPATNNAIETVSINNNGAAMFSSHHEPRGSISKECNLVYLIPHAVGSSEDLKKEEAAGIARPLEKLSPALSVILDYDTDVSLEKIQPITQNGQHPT
# T1 sequence (P50406 whole entry): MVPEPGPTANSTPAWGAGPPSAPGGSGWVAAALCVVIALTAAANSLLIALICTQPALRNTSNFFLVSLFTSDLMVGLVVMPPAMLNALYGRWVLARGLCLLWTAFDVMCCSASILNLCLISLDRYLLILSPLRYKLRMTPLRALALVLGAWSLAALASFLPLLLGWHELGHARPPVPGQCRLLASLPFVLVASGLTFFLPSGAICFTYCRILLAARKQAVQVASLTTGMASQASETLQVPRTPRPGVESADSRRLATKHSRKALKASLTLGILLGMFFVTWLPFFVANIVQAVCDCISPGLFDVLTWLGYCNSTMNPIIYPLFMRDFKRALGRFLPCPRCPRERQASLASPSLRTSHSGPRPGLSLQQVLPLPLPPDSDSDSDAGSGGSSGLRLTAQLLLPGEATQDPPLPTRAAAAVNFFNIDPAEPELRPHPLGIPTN
# T9 sequence (P50406 whole entry): as above
# T7 sequence (P35462 whole entry): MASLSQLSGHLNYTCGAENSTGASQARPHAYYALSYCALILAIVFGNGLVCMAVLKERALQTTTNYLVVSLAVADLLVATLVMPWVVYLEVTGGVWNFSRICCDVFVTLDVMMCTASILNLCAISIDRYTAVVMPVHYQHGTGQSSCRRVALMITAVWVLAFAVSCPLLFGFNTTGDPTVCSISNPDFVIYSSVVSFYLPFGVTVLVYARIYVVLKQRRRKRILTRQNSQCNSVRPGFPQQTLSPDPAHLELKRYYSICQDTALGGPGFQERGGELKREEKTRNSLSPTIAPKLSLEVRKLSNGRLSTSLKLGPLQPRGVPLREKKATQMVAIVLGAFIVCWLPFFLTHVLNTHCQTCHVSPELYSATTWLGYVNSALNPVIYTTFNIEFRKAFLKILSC
# T6 sequence (P14416 whole entry): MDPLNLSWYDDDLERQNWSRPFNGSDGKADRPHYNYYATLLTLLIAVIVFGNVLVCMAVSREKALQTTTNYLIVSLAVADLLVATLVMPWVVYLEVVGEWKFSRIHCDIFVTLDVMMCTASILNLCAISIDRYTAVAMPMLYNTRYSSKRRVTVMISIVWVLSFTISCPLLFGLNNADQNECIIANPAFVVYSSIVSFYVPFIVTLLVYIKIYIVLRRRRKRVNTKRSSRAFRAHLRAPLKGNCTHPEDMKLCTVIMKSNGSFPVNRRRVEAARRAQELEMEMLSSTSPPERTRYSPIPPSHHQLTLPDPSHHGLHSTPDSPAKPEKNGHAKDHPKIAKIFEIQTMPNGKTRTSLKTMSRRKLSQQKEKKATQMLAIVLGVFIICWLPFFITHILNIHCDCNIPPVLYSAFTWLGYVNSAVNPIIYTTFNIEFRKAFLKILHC
# T4 sequence (P28223 whole entry): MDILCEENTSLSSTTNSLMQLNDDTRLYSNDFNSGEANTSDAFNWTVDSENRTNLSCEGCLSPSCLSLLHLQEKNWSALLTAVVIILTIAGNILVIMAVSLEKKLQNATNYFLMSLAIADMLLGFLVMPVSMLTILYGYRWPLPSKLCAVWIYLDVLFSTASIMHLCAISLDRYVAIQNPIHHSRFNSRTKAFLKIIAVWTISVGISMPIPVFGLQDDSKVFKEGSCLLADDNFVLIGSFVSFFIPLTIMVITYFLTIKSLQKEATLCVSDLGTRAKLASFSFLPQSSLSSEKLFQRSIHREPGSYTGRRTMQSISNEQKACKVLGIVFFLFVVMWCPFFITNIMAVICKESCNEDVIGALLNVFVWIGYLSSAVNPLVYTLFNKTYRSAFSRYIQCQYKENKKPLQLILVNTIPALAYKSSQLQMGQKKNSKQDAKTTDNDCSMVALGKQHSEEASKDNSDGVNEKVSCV
# T2 sequence (P34969 whole entry): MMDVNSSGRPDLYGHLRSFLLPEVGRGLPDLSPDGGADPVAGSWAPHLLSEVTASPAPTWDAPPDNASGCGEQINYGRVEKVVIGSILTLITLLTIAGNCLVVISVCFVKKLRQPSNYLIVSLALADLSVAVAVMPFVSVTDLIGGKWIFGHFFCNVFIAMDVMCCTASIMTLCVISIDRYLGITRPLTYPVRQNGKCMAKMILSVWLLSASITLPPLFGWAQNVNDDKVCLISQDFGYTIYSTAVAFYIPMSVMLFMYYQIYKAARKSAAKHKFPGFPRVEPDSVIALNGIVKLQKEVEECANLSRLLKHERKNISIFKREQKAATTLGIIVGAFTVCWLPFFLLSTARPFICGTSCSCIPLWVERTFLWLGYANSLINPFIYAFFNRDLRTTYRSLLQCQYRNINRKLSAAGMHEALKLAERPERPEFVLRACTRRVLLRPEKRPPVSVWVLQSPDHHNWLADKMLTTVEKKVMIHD
Compound,"IC50 [1, 21] [nM]","IC50 [1, 22] [nM]",IC50 [2] [nM],IC50 [3] [nM],IC50 [4] [nM],IC50 [5] [nM],IC50 [6] [nM],IC50 [7] [nM],IC50 [8] [nM],IC50 [9] [nM],TD50 at 120 min [10] [mg/kg],Rotarod deficit (%) ([11]; 200 p.o. (dose unit not given)),Rotarod deficit (%) ([11]; 300 p.o. (dose unit not given)),Rotarod deficit (%) ([11]; 400 p.o. (dose unit not given)),melting point [°C],further results
"CC1(c2ccc(O)cc2)C(=O)c2c(N3CCNCC3)cc(Cl)cc2N(Cc2cccc(O)c2)C1=O (centres unmarked) [Example 28, 7-Chloro-1-(3-hydroxy-benzyl)-3-(4-hydroxy-phenyl)-3-methyl-5-piperazin-1-yl-1H-quinoline-2,4-dione]",3,3,> 10000,> 10000,> 10000,> 10000,> 10000,> 10000,> 1000,> 10000,> 400,0,0,0,229 to 230,–
"COc1ccc(C2(C)C(=O)c3c(N4CCNCC4)cc(Cl)cc3N(Cc3cccc(Br)c3)C2=O)cc1 (centres unmarked) [Example 33, 1-(3-Bromo-benzyl)-7-chloro-3-(4-methoxy-phenyl)-3-methyl-5-piperazin-1-yl-1H-quinoline-2,4-dione]",1.8,1.8,> 10000,> 1000,> 1000,> 1000,> 1000,> 1000,> 1000,> 10000,> 400,0,0,0,113 to 114,"binding affinity at 5-HT6 receptor labeled by [3H]LSD, in words ([1]; comment on Table 2): significant affinities"
"COc1ccc(C2(C)C(=O)c3c(N4CCNCC4)cc(Cl)cc3N(Cc3ccc4ccccc4c3)C2=O)cc1 (centres unmarked) [Example 39, 7-Chloro-3-(4-methoxy-phenyl)-3-methyl-1-naphthalen-2-ylmethyl-5-piperazin-1-yl-1H-quinoline-2,4-dione]",4.7,4.7,> 1000,> 10000,> 1000,> 1000,> 1000,> 1000,> 1000,> 10000,> 400,0,0,0,169 to 170,–
COc1ccc2c(c1)c(CCN(C)C)cn2S(=O)(=O)c1ccccc1 [MS-245],–,–,–,–,–,–,–,–,–,–,–,–,–,–,–,"pA2, antagonist [12]: 8.88"
CNc1cc(NS(=O)(=O)c2ccc(N)cc2)nc(NC)n1 [Ro 04-6790],–,–,–,–,–,–,–,–,–,–,–,–,–,–,–,"anticonvulsant activity [13]: possess anticonvulsant activity; food intake [14]: decreased food intake; induction of behavior of yawning, stretching, and chewing [15]: capable of inducing this same effect"
CNc1cc(NS(=O)(=O)c2ccc(N)cc2)cc(NC)n1 [Ro 63-0563],–,–,–,–,–,–,–,–,–,–,–,–,–,–,–,Ki [16]: 12 nM
COc1ccc(S(=O)(=O)Nc2cc(Br)cc(F)c2Br)cc1N1CCNCC1 [SB-357134],–,–,–,–,–,–,–,–,–,–,–,–,–,–,–,"retention of a previously learned task [17]: significant improvement; seizure threshold ([13]; rat maximal electroseizure threshold, oral administration): potent and dose-dependent increase; clearance and bioavailability, in words ([18]; in vivo): low clearance rate and excellent oral bioavailability"
CN(C)CCCN1c2ccccc2Sc2ccc(Cl)cc21 [chlorpromazine],–,–,–,–,–,–,–,–,–,–,–,–,–,–,–,"affinity at 5-HT6 receptors, in words [16]: bind with high affinity"
CN(C)CC/C=C1/c2ccccc2Sc2ccc(Cl)cc21 [chlorprothixene],–,–,–,–,–,–,–,–,–,–,–,–,–,–,–,"affinity at 5-HT6 receptors, in words [16]: bind with high affinity"
SB-271046 [reference compound],–,–,–,–,–,3960,–,> 10000,–,> 10000,–,–,–,–,–,"mean startle amplitude compared with methamphetamine group ([19]; administered 30 min before methamphetamine): no significant differences; disruption of PPI by methamphetamine, effect of pretreatment ([19]; rats, i.p., 30 min before methamphetamine (3, i.p.), P<0.05): reversed significantly; retention of a previously learned task [17]: significant improvement; extracellular glutamate levels [20]: increased extracellular glutamate levels in frontal cortex and dorsal hippocampus by several fold; anticonvulsant activity [13]: possess anticonvulsant activity; oral bioavailability ([18]; background literature): > 80%"
